The source of these data is patent US9688642B2, “Substituted pyrazines as GPR40 agonists” (Janssen Pharmaceutica NV, priority 2014, dated 2017).

pEC50: −log10 of the molar value. “And” between values parts separate entries of the source, which are not always exact repeats. Equal values may be shown once.

Assay [1] has as its target rat GPR40 (Rattus norvegicus (Rat), UniProt Q8K3T4). In words: GPR40 calcium flux assay, HEK293 cells stably expressing rat GPR40. The class given is cell-based. As to conditions: transfected HEK293 cells stably expressing rat GPR40; individual determinations listed; read-out: rGPR40 Ca2+ Assay EC50. Here is the method: (§1) Compounds were tested in a calcium flux assay using transfected HEK293 cells stably expressing either human GPR40 or rat GPR40. Human GPR40 expressing cells were cultured in DMEM-High Glucose media supplemented with 10% fetal bovine serum, 1×L-Glutamine, 1× Penicillin/Streptomycin and 500 μg/mL G418. Rat GPR40 expressing cells were cultured in DMEM-High Glucose media supplemented with 10% fetal bovine serum and 1 μg/mL puromycin. Cells were plated into poly-D-lysine coated 384-well plates and cultured overnight in a 37° C. humidified tissue culture incubator under 5% CO2/90% O2 atmosphere. On the day of the experiment, the culture media was replaced with assay buffer (HBSS, 20 mM HEPES, 0.1% BSA) and the cells incubated at 37° C. for 1 h. Calcium-sensitive fluorescent dye (Fluo 8 No-Wash Calcium Dye, ABD Bioquest) was then added and the cells incubated for another 30 min at 37° C. followed by 15 min at room temperature while protected from the light. The cell plate and a plate of diluted compounds of Formula (I) were loaded into a fluorescent plate reader that added compounds onto the cells while measuring the fluorescence intensity of each well. The plate reader recorded fluorescence intensity at 1 second intervals for 8 min and provided the data for analysis in an Excel format. EC50 values were calculated using Prism (GraphPad) software.
On the technique in general: Calcium assays in cells follow changes in intracellular calcium, usually with a dye or a luminescent sensor.

Assay [2] addresses human GPR40 (Homo sapiens (Human), UniProt O14842). In words: GPR40 calcium flux assay, HEK293 cells stably expressing human GPR40. As to conditions: transfected HEK293 cells stably expressing human GPR40; individual determinations listed; read-out: hGPR40 Ca2+ Assay EC50. The format is cell-based. Here is the method: as §1
For assay [3], the system named is Male SD rats. In words: Oral glucose tolerance test. The class given is in vivo, rat. As to conditions: dosed 30 min prior to oGTT (glucose 2 g/kg po), blood glucose AUC t=0 to t=120 minutes vs vehicle. Here is the method: Male SD rats (200-250 g) were housed 2 per cage in a temperature-controlled room with a 12-hour light/dark cycle. They were allowed ad libitum access to water and fed with normal rodent chow. The night before the oral glucose tolerance test (oGTT), the rats were transferred to clean cages and fasted overnight. On the morning of the oGTT, the rats were weighed and randomized into groups based on fasted blood glucose and body weight. Rats were dosed with vehicle (0.5% methocel) or compounds thirty min prior to the oGTT (glucose, 2 g/kg, po). Blood was collected from the tail vein at 0, 10, 30, 60 and 120 minutes after glucose challenge to measure blood glucose; plasma was used to determine insulin levels.

human GPR40, sequence (O14842 whole entry): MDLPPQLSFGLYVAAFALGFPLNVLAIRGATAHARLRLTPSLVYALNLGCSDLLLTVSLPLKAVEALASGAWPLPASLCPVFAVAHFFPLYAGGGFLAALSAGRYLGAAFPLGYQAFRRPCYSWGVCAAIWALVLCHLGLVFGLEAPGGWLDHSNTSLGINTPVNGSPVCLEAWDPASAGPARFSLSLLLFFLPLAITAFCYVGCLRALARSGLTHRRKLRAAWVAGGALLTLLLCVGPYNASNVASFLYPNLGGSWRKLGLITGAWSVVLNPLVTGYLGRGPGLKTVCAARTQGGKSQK
rat GPR40, sequence (Q8K3T4 whole entry): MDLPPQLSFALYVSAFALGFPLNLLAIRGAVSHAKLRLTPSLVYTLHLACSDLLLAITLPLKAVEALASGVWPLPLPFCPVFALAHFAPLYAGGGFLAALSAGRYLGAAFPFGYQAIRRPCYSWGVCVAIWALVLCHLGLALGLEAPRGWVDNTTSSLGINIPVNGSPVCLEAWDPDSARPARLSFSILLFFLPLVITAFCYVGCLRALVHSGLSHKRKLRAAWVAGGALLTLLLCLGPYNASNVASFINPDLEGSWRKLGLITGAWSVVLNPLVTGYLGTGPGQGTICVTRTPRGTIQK

The EC50 is the concentration that produces a half-maximal response. For `COc1cc(-c2ncc(COc3cccc([C@@H](CC(=O)O)C4CC4)c3)nc2CC(C)C)c(F)cn1` [Cpd 2, (3S)-3-cyclopropyl-3-[3-[[5-(5-fluoro-2-methoxy-4-pyridyl)-6-isobutyl-pyrazin-2-yl]methoxy]phenyl]propanoic acid], the EC50 in assay [1] was 7 nM (2×) and 8 nM and 12 nM; in assay [2], 2 nM (2×) and 1 nM and 3 nM. Besides, in assay [3], the “Percent Lowering of Glucose (AUC compound vs. AUC Vehicle)” value (“Percent Lowering of Glucose” below) was 87%.
In general, pEC50 refers to −log10 of the EC50, conventionally taken in molar units. For the compound `COc1ccc(F)c(-c2ncc(COc3cccc([C@@H](CC(=O)O)C4CC4)c3)nc2C=C(C)C)c1` [Cpd 8, (3S)-3-cyclopropyl-3-[3-[[5-(2-fluoro-5-methoxy-phenyl)-6-(2-methylprop-1-enyl)pyrazin-2-yl]methoxy]phenyl]propanoic acid], the pEC50 in assay [1] is 7.41 and 7.54 and 7.12 and 7.30; in assay [2] it was 8.00 and 8.05 and 7.85 and 8.10 and 8.22. In assay [3], the “Percent Lowering of Glucose” value is on record as 91%.
Take `COc1ccc(F)c(-c2ncc(COc3cccc([C@@H](CC(=O)O)C4CC4)c3)nc2OC(C)C)c1` [Cpd 29, (3S)-3-cyclopropyl-3-[3-[[5-(2-fluoro-5-methoxy-phenyl)-6-isopropoxy-pyrazin-2-yl]methoxy]phenyl]propanoic acid]: the EC50 in assay [1] was 73 nM (2×) and 56 nM and 98 nM and 62 nM. The pEC50 in assay [2] was 7.41 and 7.52 and 7.68 and 7.59 and 7.64.
On to `COc1ccc(F)c(-c2ncc(COc3cccc([C@@H](CC(=O)O)C4CC4)c3)nc2C2=CCCC2(C)C)c1` [Cpd 30, (3S)-3-cyclopropyl-3-[3-[[6-(5,5-dimethylcyclopenten-1-yl)-5-(2-fluoro-5-methoxy-phenyl)pyrazin-2-yl]methoxy]phenyl]propanoic acid], for which the “Percent Lowering of Glucose” value in assay [3] is recorded as 87%.
For the compound `COc1cc(-c2ncc(COc3cccc([C@@H](CC(=O)O)C4CC4)c3)nc2C2=CCCC2(C)C)ccn1` [Cpd 31, (3S)-3-cyclopropyl-3-[3-[[6-(5,5-dimethylcyclopenten-1-yl)-5-(2-methoxy-4-pyridyl)pyrazin-2-yl]methoxy]phenyl]propanoic acid], the pEC50 in assay [1] was 6.99 and 7.18; in assay [2] it was 7.49 and 7.59.
In the case of `COc1ccc(F)c(-c2ncc(COc3cccc([C@@H](CC(=O)O)C4CC4)c3)nc2OCCC(F)(F)F)c1` [Cpd 32, (3S)-3-cyclopropyl-3-[3-[[5-(2-fluoro-5-methoxy-phenyl)-6-(3,3,3-trifluoropropoxy)pyrazin-2-yl]methoxy]phenyl]propanoic acid], the pEC50 in assay [1] is 6.92 and 7.03; in assay [2], 7.52 and 7.55.
In the case of `COc1ccc(F)c(-c2ncc(COc3cccc([C@@H](CC(=O)O)C4CC4)c3)nc2-c2sccc2C)c1` [Cpd 33, (3S)-3-cyclopropyl-3-[3-[[5-(2-fluoro-5-methoxy-phenyl)-6-(3-methyl-2-thienyl)pyrazin-2-yl]methoxy]phenyl]propanoic acid], the pEC50 in assay [1] is 6.92 and 6.96 and 7.00 and 7.09; in assay [2] it was 7.47 and 7.57.
With `COc1ccc(F)c(-c2ncc(COc3cccc([C@@H](CC(=O)O)C4CC4)c3)nc2N(C)C(C)C)c1` [Cpd 34, (3S)-3-cyclopropyl-3-[3-[[5-(2-fluoro-5-methoxy-phenyl)-6-[isopropyl(methyl)amino]pyrazin-2-yl]methoxy]phenyl]propanoic acid], the pEC50 in assay [1] was 6.95 and 6.98 and 7.06 and 7.07; in assay [2], 7.48 and 7.52.
As for `COc1cccc(-c2ncc(COc3cccc([C@@H](CC(=O)O)C4CC4)c3)nc2C2=CCCC2(C)C)c1` [Cpd 35, (3S)-3-cyclopropyl-3-[3-[[6-(5,5-dimethylcyclopenten-1-yl)-5-(3-methoxyphenyl)pyrazin-2-yl]methoxy]phenyl]propanoic acid], the pEC50 in assay [1] is 6.45 and 6.62; in assay [2], 7.30 and 7.60.
For `COc1ccc(F)c(-c2ncc(COc3cccc([C@@H](CC(=O)O)C4CC4)c3)nc2-c2ccc(C)s2)c1` [Cpd 36, (3S)-3-cyclopropyl-3-[3-[[5-(2-fluoro-5-methoxy-phenyl)-6-(5-methyl-2-thienyl)pyrazin-2-yl]methoxy]phenyl]propanoic acid], the pEC50 was 6.93 and 6.96 and 6.98 and 7.07 in assay [1]; 7.40 and 7.42 in assay [2].
For `COc1ccc(F)c(-c2ncc(COc3cccc([C@@H](CC(=O)O)C4CC4)c3)nc2C(C)C)c1` [Cpd 37, (3S)-3-cyclopropyl-3-[3-[[5-(2-fluoro-5-methoxy-phenyl)-6-isopropyl-pyrazin-2-yl]methoxy]phenyl]propanoic acid], the pEC50 was 6.85 and 6.96 in assay [1]; 7.35 and 7.36 in assay [2].
Take `COc1ccc(F)c(-c2ncc(COc3cccc([C@@H](CC(=O)O)C4CC4)c3)nc2N(C)C)c1` [Cpd 38, (3S)-3-cyclopropyl-3-[3-[[6-(dimethylamino)-5-(2-fluoro-5-methoxy-phenyl)pyrazin-2-yl]methoxy]phenyl]propanoic acid]: the pEC50 in assay [1] was 6.40; in assay [2], 7.26 and 7.38.
As for `COc1ccc(F)c(-c2ncc(COc3cccc([C@@H](CC(=O)O)C4CC4)c3)nc2C2CC2)c1` [Cpd 39, (3S)-3-cyclopropyl-3-[3-[[6-cyclopropyl-5-(2-fluoro-5-methoxy-phenyl)pyrazin-2-yl]methoxy]phenyl]propanoic acid], the pEC50 in assay [1] was 6.40 and 6.45 and 6.61 and 6.68; in assay [2] it was 6.89 and 7.01 and 7.19 and 7.30.
On to `COc1ccc(F)c(-c2ncc(COc3cccc([C@@H](CC(=O)O)C4CC4)c3)nc2C(C)C(F)(F)F)c1` (stereo partly drawn) [Cpd 40, (3S)-3-cyclopropyl-3-[3-[[5-(2-fluoro-5-methoxy-phenyl)-6-(2,2,2-trifluoro-1-methyl-ethyl)pyrazin-2-yl]methoxy]phenyl]propanoic acid], for which the pEC50 in assay [1] was 6.60 and 6.63 and 6.64; in assay [2], 7.19 and 7.28.
As to `COc1ccc(F)c(-c2ncc(COc3cccc([C@@H](CC(=O)O)C4CC4)c3)nc2OC2COC2)c1` [Cpd 41, (3S)-3-cyclopropyl-3-[3-[[5-(2-fluoro-5-methoxy-phenyl)-6-(oxetan-3-yloxy)pyrazin-2-yl]methoxy]phenyl]propanoic acid], the pEC50 in assay [1] was 6.26 and 6.38; in assay [2], 7.10 and 7.16.
`COc1ccc(F)c(-c2ncc(COc3cccc([C@@H](CC(=O)O)C4CC4)c3)nc2OCC2CC(C)(C)C2)c1` [Cpd 42, (3S)-3-cyclopropyl-3-[3-[[6-[(3,3-dimethylcyclobutyl)methoxy]-5-(2-fluoro-5-methoxy-phenyl)pyrazin-2-yl]methoxy]phenyl]propanoic acid]: the pEC50 in assay [1] was 7.49 and 7.54; in assay [2], 7.77 and 7.85.
As for `COc1ccc(F)c(-c2ncc(COc3cccc([C@@H](CC(=O)O)C4CC4)c3)nc2-c2ccc(C(C)(C)C)s2)c1` [Cpd 43, (3S)-3-[3-[[6-(5-tert-butyl-2-thienyl)-5-(2-fluoro-5-methoxy-phenyl)pyrazin-2-yl]methoxy]phenyl]-3-cyclopropyl-propanoic acid], the pEC50 in assay [1] was 7.09 and 7.26; in assay [2] it was 7.82 and 7.92.
In the case of `COc1ccc(F)c(-c2ncc(COc3cccc([C@@H](CC(=O)O)C4CC4)c3)nc2NCC(C)(C)C)c1` [Cpd 44, (3S)-3-cyclopropyl-3-[3-[[6-(2,2-dimethylpropylamino)-5-(2-fluoro-5-methoxy-phenyl)pyrazin-2-yl]methoxy]phenyl]propanoic acid], the pEC50 in assay [1] was 7.23 and 7.16; in assay [2] it was 7.77 and 7.96.
As to `COc1ccc(F)c(-c2ncc(COc3cccc([C@@H](CC(=O)O)C4CC4)c3)nc2N2CCOCC2)c1` [Cpd 45, (3S)-3-cyclopropyl-3-[3-[[5-(2-fluoro-5-methoxy-phenyl)-6-morpholinopyrazin-2-yl]methoxy]phenyl]propanoic acid], the pEC50 was 6.86 and 6.87 in assay [1]; 7.47 in assay [2].
For the compound `COc1cccc(-c2ncc(COc3cccc([C@@H](CC(=O)O)C4CC4)c3)nc2C2=CCCC2(C)C)c1F` [Cpd 46, (3S)-3-cyclopropyl-3-[3-[[6-(5,5-dimethylcyclopenten-1-yl)-5-(2-fluoro-3-methoxy-phenyl)pyrazin-2-yl]methoxy]phenyl]propanoic acid], the pEC50 in assay [1] is 6.20 and 6.10; in assay [2], 6.89 and 6.90.
On to `COc1cc(-c2ncc(COc3cccc([C@@H](CC(=O)O)C4CC4)c3)nc2OCC(C)(C)C)c(F)cn1` [Cpd 47, (3S)-3-cyclopropyl-3-[3-[[6-(2,2-dimethylpropoxy)-5-(5-fluoro-2-methoxy-4-pyridyl)pyrazin-2-yl]methoxy]phenyl]propanoic acid], for which the pEC50 in assay [1] was 7.89 and 7.85; in assay [2], 8.52.
As to `COc1cc(-c2ncc(COc3cccc([C@@H](CC(=O)O)C4CC4)c3)nc2OCC2CC2)c(F)cn1` [Cpd 48, (3S)-3-cyclopropyl-3-[3-[[6-(cyclopropylmethoxy)-5-(5-fluoro-2-methoxy-4-pyridyl)pyrazin-2-yl]methoxy]phenyl]propanoic acid], the pEC50 in assay [1] was 6.86 and 6.82; in assay [2] it was 7.46 and 7.49.
